{
  "source": "patent US20080021002A1",
  "about": "“VITAMIN D COMPOUNDS USED TO STABILIZE KIDNEY TRANSPLANTS” (priority 2000, published 2008)",
  "format_in_all_cases": "in vivo, rat",
  "key": {"MMP 9 mRNA": {"tested_on": "MMP 9 mRNA", "experiment": "Semi-quantitative RT-PCR of renal grafts, MMP 9 mRNA", "conditions": "all groups vs syngeneic untreated controls, regardless of treatment", "description": "FIG. 5 is a set of graphs showing that 1,25-(OH)2D3 Treatment Alters MMP and TIMP Expression . […] S26 was used as the housekeeping gene. […]\n(§1) Semi-quantitative Reverse transcription polymerace chain reaction (RT-PCR): Following graft harvest a […] containing both cortex and medulla was snap frozen in liquid nitrogen. Semi-quantitative RT-PCR was performed as described. Little et al. Transplant Int. 12:393-401, 1999. Briefly, samples were homogenized then total RNA extracted with RNAzol B (Tel Test, Inc., Friendswood, Tex.) and reversed transcribed to cDNA according to manufacturer=s instructions (Superscript, Gibco BRL). PCR was performed over the linear range of amplification for both the gene of interest, e.g. TGFβ-1, and the ribosomal protein S26 as a control housekeeping gene. PCR conditions were chosen such that both products were amplified with similar efficiency. The following cycle parameters were employed: denaturing, 94° C. for 60 seconds; annealing, 61° C. for 60 seconds; and extension, 72° C. for 60 seconds. The amount of product was quantified using a phosphoimager (Storm 80) following gel electrophoresis and Vista green detection."}, "TIMP 1 mRNA": {"tested_on": "TIMP 1 mRNA", "experiment": "Semi-quantitative RT-PCR of renal grafts, TIMP 1 mRNA", "conditions": "all groups vs untreated allograft recipients, regardless of treatment", "description": "FIG. 5 is a set of graphs showing that 1,25-(OH)2D3 Treatment Alters MMP and TIMP Expression . […] S26 was used as the housekeeping gene. […] Fold changes are expressed relative to the allogeneic untreated control.\nas §1"}, "bioactive TGFβ-1 [1]": {"tested_on": "bioactive TGFβ-1", "experiment": "Immunohistochemistry of renal grafts for bioactive TGFβ-1", "description": "FIGS. 6 (B) and (C) show immunohistochemistry for bioactive TGFβ-1 in two 1,25-(OH)2D3 treated grafts (1000 ng/rat/day). […] Magnification 200×.\nImmunhistochemistry: Formalin fixed, paraffin embedded rat kidneys were sectioned to 4 microns. Sections were rewarmed on day of staining at 60° for 10 minutes, then deparaffinized in xylene for 30 minutes followed by rehydration. Sections were washed twice in distilled water and antigen retrieval performed. Briefly, section were soaked in 100 mM citrate buffer, pH=6.0 for 10 minutes at 90° C. and then heated to 115° C. or 20 minutes Sections were allowed to cool and then washed in PBS and blocked for 10 minutes with BIOCARE SUPER SNIPER9 (BS996L) followed by diluted primary TGFβ-1 antibody (1:150 (Promega Corp., Madison, Wis.; G1221) at 4° C. overnight. Slides were washed (3×5 minutes, PBS) and secondary antibody applied (1 hour at RT, MACHII BIOCARE goat anti-rabbit with polymer spacer; RHRP52OH, Walnut Creek, Calif.).\nSlides were developed with Pierce=s Stable Peroxide buffer (cat #1855910) and Pierce=s Stable Metal enhanced DAB solution (cat #1856090)."}, "bioactive TGFβ-1 [2]": {"tested_on": "bioactive TGFβ-1", "experiment": "Antigen-capture ELISA of renal graft lysates, bioactive TGFβ-1", "conditions": "treated recipients vs untreated allogeneic control grafts", "description": "Enzyme Linked Immunoabsorbant Assay (ELISA): TGFβ-1 and MMP 2 levels were quantified by antigen-capture ELISA. […] After blocking with 1× block buffer at 37° C. for 35 minutes 25 ul of cell lysate (diluted 1:10 in the lysis buffer) was added to the wells. A standard curve was generated by performing two fold serial dilutions of the standard active TGFβ-1 antigen (diluted 15.6 pg/ml to 1000 pg/ml, Promega, Inc.) or MMP2 (0.5 ng/ml to 100 ng/ml, R and D Systems). The plate was incubated for 2 hours at RT with shaking and then washed extensively with wash buffer (0.05% Tween 20 in PBS) followed by PBS. The TGFβ-1 ELISA was then developed according to the manufacturer's instruction. For the MMP2 ELISA, biotinylated detection antibody, clone 101721 (25 μL/well at 1.4 ug/ml R and D Systems) was added and incubated at RT (1hour, with shaking). The antibody was biotinylated using a Mini-Biotin-XX Protein Labeling Kit (F-6347) according to manufacturer's instruction (Molecular Probes, Eugene Oreg.). Following further washing, avidin-peroxidase conjugate was added (25 ul/well at 1:5000) for 30 minutes at RT. A color reaction was developed by the addition of 25 ul of the TMB (3, 3′, 5, 5′-tetramethylbenzidine)/[…] substrate solution, (KPL, Gaithersberg, Md.). […] Absorbance was measured at 450 nm on a Vmax Kinetic microplate reader (Molecular Devices, Sunnyvale Calif.). […]"}},
  "data": [
    {"molecule": "C=C1/C(=C\\C=C2/CCC[C@]3(C)[C@@H]([C@H](C)CCCC(C)(C)O)CC[C@@H]23)C[C@@H](O)C[C@@H]1O", "note": "[calcitriol, 1,25-dihydroxyvitamin D3]", "values": [
      {"measurement": "MMP 9 mRNA", "setting": "MMP 9 mRNA", "result": "increased"},
      {"measurement": "TIMP 1 mRNA expression", "setting": "TIMP 1 mRNA", "result": "decreased"},
      {"measurement": "Glomerular staining for bioactive TGFβ-1", "setting": "bioactive TGFβ-1 [1]; 1000 ng/rat/day (FIG. 6 legend)", "result": "significantly decreased"},
      {"measurement": "Bioactive TGFβ-1 staining in tubular areas", "setting": "bioactive TGFβ-1 [1]; allogeneic grafts (FIG. 6)", "result": "extensive staining"},
      {"measurement": "Bioactive TGFβ-1 expression in glomeruli", "setting": "bioactive TGFβ-1 [1]; treated grafts in contrast to untreated control grafts (FIG. 6)", "result": "little bioactive TFGβ-1 expression"},
      {"measurement": "Bioactive TGFβ-1 protein levels", "setting": "bioactive TGFβ-1 [2]", "result": "no significant difference"}
    ]}
  ]
}
